Assay results published in US8227240B2, “Systems for screening pharmaceutical chemicals” (The Washington University, priority 2001, dated 2012).

Test system: chicken embryo fibroblasts (CEF's) tissue model
Assay: Ring system: isometric force and dynamic stiffness of fibroblast populated matrices (FPM)
Format: cell-based
Details: for contractile force produced in response to serum activation: cytochalasin D 2 μM
Experimental: Chicken embryo fibroblasts (CEF's) isolated from 11-day chicken embryos (Spafas Inc., Preston, Conn.) were maintained in Dulbecco's modified Eagle's medium (DMEM) supplemented with 10% fetal calf serum (FCS), penicillin at 50 units/ml, and streptomycin at 50 microgram/milliliter. The CEF's used to make tissue models were passaged once or twice from primary cultures. Monomeric collagen solubilized in 0.02 M acetic acid (Upstate Biotechnology Inc., Lake Placid, N.Y.) was neutralized at 4° C. with 0.1 N NaOH and mixed with concentrated DMEM stock to yield a final normal DMEM concentration. The fibroblasts suspended by trypsin (FIG. 1a) were mixed with the collagen solution (FIG. 1b), the cell suspension was poured into Teflon casting wells (FIG. 1c), and the wells were incubated at 37° C. with 5% CO2 (FIG. 1d). The collagen polymerized within 15-30 min and fibroblasts were captured within the hydrated collagen gel. The collagen gel formed a ring (3 mm thick, 3 cm diameter) between the inner wall of the cylindrical well and the central mandrel. While in culture the cells compressed this ring, reducing its volume about 10-fold (thickness 200-300 μm). The ring could then be removed from the mandrel (FIG. 1e and FIG. 1f) and mounted on the measuring instrument (FIG. 1g) as described below.
Mechanical measurements were carried out using a ring system. After two days of incubation (serum starvation for the final 12-16 hours), the mandrel was removed from the casting well and the tissue model-ring was removed gently from the mandrel. As shown in FIG. 1 the tissue model-ring was looped over the triangular hook connected to an isometric force transducer (Model 52-9545, Harvard Apparatus, South Natick, Mass.) by a fine, flexible gold chain. The ring was also looped over a horizontal bar connected to a sliding element moveable vertically and linearly by a stepper motor (P/N 1-19-3400 24V DC 1.8° step size, Haward Industry, St. Louis, Mo.) controlled by a micro-stepping driver (IM483 Intelligent Motion Systems) to measure stress and dynamic modulus of the sample. The micro-stepping driver was controlled by a personal computer with software which enabled the stepper motor to achieve smooth motion. An analog-to-digital signal converter (CIO-DAS1602/16, Computer Boards, Inc., Mansfield, Mass.) attached to the computer translated the voltage signal from the isometric force transducer to a digital signal for recording on a data recorder. The stepper motor controlled the stretching of the tissue. Force exerted by or on the tissue was transmitted to the force transducer by the gold chain.
The tissue sample was submerged in 50 ml Hepes-buffered DMEM (pH 7.4) in a thermo-regulated organ bath (Harvard Apparatus, South Natick, Mass.) maintained at 37° C. The two horizontal bars over which the ring was looped were initially set to hold the ring at its original contour length (corresponding to the circumference of the mandrel).
Typically, for stiffness measurements, the tissue model is subjected to a sequence of stretch cycles. In each cycle the tissue model is slowly stretched from 0 to 20% over 30 minutes and the tissue model is then returned at the same rate to its original length by actuation of the stepper motor. The resulting increase in contractile force during the first stretch is substantially larger than the contractile force in subsequent stretches (FIG. 2a). For each stretch after the first stretch there is a further small decrease in maximum contractile force, but the decrease becomes negligible after sufficient pre-stretching. The tissue models produced contractile force in response to the activation of fibroblasts by serum. This contractile force was abolished by disrupting the actin cytoskeleton with cytochalasin D (2 μM) (FIG. 2b).
The amplitude of the force response divided by the stretching amplitude corresponded to the dynamic stiffness of the sample subjected to a preselected sinusoidal length change. […]

## C=C1[C@@H](C)[C@H]2[C@H](Cc3ccccc3)NC(=O)[C@]23[C@H](OC(C)=O)/C=C/[C@@](C)(O)C(=O)[C@@H](C)C/C=C/[C@H]3[C@@H]1O [CD, cytochalasin D]
  concentration range over which tension and stiffness decrease: almost three decades
  lowest concentration at which force and dynamic stiffness were significantly diminished: 2 nM
CD 2 μM
  dynamic stiffness: nearly reached its minimum value
  isometric force: reduced almost to zero
Listed as Cytochalasin D
  contractile force produced in response to serum activation: abolition of active contractility
Listed as cytochalasin D
  contractile force produced in response to serum activation: abolished
Data not shown
  effect on viscosity of the tissues (phase angle δ): relatively minor effect
Two day-old tissue models, serum starved 16 hours, serial additions, read-out: concentration needed to reduce the force and dynamic stiffness by 50%
  IC50: ~0.25 µM
